Starred links: 1 amine or outer side, 2 acyl side, 3 side chain; linkers in the order of their positions; H or OH if unused. Non-standard residues stand in square brackets, D forms with d. Residues, ends and D or L forms follow the SMILES beside them. X3 = CC(=O)O[C@@H](c1ccccc1)[C@@H](N[*:1])C(=O)[*:2]; X1 = CC(=O)O[C@H](c1ccccc1)[C@H](N[*:1])C(=O)[*:2]; X2 = O=C(/C(=C/c1ccccc1)N[*:1])[*:2]; Phe(ol) = N[C@H](CO)Cc1ccccc1
Experiments:
[1] = target: Cyclin-dependent kinase 2/cyclin A (Homo sapiens, UniProt P24941); test: In vitro inhibition of CDK2-cyclin A kinase activity on retinoblastoma protein; type: protein-complex assay
[2] = Inhibition of competitive binding to cyclin-A kinase complex
[3] = Inhibition of p21WAF1 peptide recruitment to CDK 2/cyclin-A complex

SMILES | IC50 [1] [µM] | IC50 [2] [µM] | IC50 [3] [µM]
CC[C@H](C)[C@H](NC(=O)[C@H](CC(C)C)NC(=O)[C@H](CCCNC(=N)N)NC(=O)[C@H](CCCNC(=N)N)NC(=O)[C@H](CCCCN)NC(=O)[C@H](C)NC(=O)[C@@H](N)Cc1cnc[nH]1)C(=O)N[C@@H](C(=O)O)[C@@H](OC(C)=O)c1ccccc1 | 0.2 |  | 
CC[C@H](C)[C@H](NC(=O)[C@H](CC(C)C)NC(=O)[C@H](CCCN=C(N)N)NC(=O)[C@H](CCCN=C(N)N)NC(=O)[C@H](CCCCN)NC(=O)[C@H](CO)NC(=O)[C@@H](N)Cc1c[nH]cn1)C(=O)N[C@@H](Cc1ccccc1)C(N)=O | 3.4 | 4.3 | 
CC[C@H](C)[C@H](NC(=O)[C@H](CC(C)C)NC(=O)[C@H](CCCN=C(N)N)NC(=O)[C@H](CCCN=C(N)N)NC(=O)[C@H](CCCCN)NC(=O)[C@H](CO)NC(=O)[C@@H](N)Cc1c[nH]cn1)C(=O)N[C@H](C(=O)O)[C@H](O)c1ccccc1 | 0.56 | 0.25 | 0.19
CC[C@H](C)[C@H](NC(=O)[C@H](CC(C)C)NC(=O)[C@H](CCCN=C(N)N)NC(=O)[C@H](CCCN=C(N)N)NC(=O)[C@H](CCCCN)NC(=O)[C@H](CO)NC(=O)[C@@H](N)Cc1c[nH]cn1)C(=O)N[C@H](CO)Cc1ccccc1 | 0.43 |  | 0.31
CC[C@H](C)[C@H](NC(=O)[C@H](CC(C)C)NC(=O)[C@H](CCCN=C(N)N)NC(=O)[C@H](CCCN=C(N)N)NC(=O)[C@H](CCCCN)NC(=O)[C@H](CO)NC(=O)[C@@H](N)Cc1c[nH]cn1)C(=O)N[C@@H](C(=O)O)[C@@H](O)c1ccccc1 | 1.2 | 0.76 | 0.71
CC[C@H](C)[C@H](NC(=O)[C@H](CC(C)C)NC(=O)[C@H](CCCN=C(N)N)NC(=O)[C@H](CCCN=C(N)N)NC(=O)[C@H](CCCCN)NC(=O)[C@H](C)NC(=O)[C@@H](N)Cc1c[nH]cn1)C(=O)N[C@H](C(=O)O)[C@H](OC(C)=O)c1ccccc1 (H-HAKRRLI[X1]-OH) | 0.32 | 0.23 | 0.24
CC[C@H](C)[C@H](NC(=O)[C@H](CC(C)C)NC(=O)[C@H](CCCN=C(N)N)NC(=O)[C@H](CCCN=C(N)N)NC(=O)[C@H](CCCCN)NC(=O)[C@H](CO)NC(=O)[C@@H](N)Cc1c[nH]cn1)C(=O)N[C@H](C(=O)O)[C@H](OC(C)=O)c1ccccc1 (H-HSKRRLI[X1]-OH) |  | 1.32 | 0.8
CC[C@H](C)[C@H](NC(=O)[C@H](CC(C)C)NC(=O)[C@H](CCCN=C(N)N)NC(=O)[C@H](CCCN=C(N)N)NC(=O)[C@H](CCCCN)NC(=O)[C@H](CO)NC(=O)[C@@H](N)Cc1c[nH]cn1)C(=O)N[C@@H](C(=O)O)[C@@H](OC(C)=O)c1ccccc1 (H-HSKRRLI[X3]-OH) |  | 1.82 | 0.6

Further compounds by falling IC50 [2], results first:

IC50 [1] [µM] | IC50 [2] [µM] | IC50 [3] [µM] | SMILES
1.3 | 0.2 | 0.22 | CC[C@H](C)[C@H](NC(=O)[C@H](CC(C)C)NC(=O)[C@H](CCCN=C(N)N)NC(=O)[C@H](CCCN=C(N)N)NC(=O)[C@H](CCCCN)NC(=O)[C@H](CO)NC(=O)[C@@H](N)Cc1c[nH]cn1)C(=O)N/C(=C\c1ccccc1)C(=O)O (H-HSKRRLI[X2]-OH)
 | 0.19 | 0.16 | CC[C@H](C)[C@H](NC(=O)[C@H](CC(C)C)NC(=O)[C@H](CCCN=C(N)N)NC(=O)[C@H](CCCN=C(N)N)NC(=O)[C@H](CCCCN)NC(=O)[C@H](C)NC(=O)[C@@H](N)Cc1c[nH]cn1)C(=O)N[C@@H](C(=O)O)[C@@H](OC(C)=O)c1ccccc1 (H-HAKRRLI[X3]-OH)
 | 0.12 | 0.11 | CC[C@H](C)[C@H](NC(=O)[C@H](CC(C)C)NC(=O)[C@H](CCCN=C(N)N)NC(=O)[C@H](CCCN=C(N)N)NC(=O)[C@H](CCCCN)NC(=O)[C@H](C)NC(=O)[C@@H](N)Cc1c[nH]cn1)C(=O)N[C@@H](C(=O)O)[C@@H](O)c1ccccc1
 | 0.074 | 0.028 | CC[C@H](C)[C@H](NC(=O)[C@H](CC(C)C)NC(=O)[C@H](CCCN=C(N)N)NC(=O)[C@H](CCCN=C(N)N)NC(=O)[C@H](CCCCN)NC(=O)[C@H](C)NC(=O)[C@@H](N)Cc1c[nH]cn1)C(=O)N[C@H](C(=O)O)[C@H](O)c1ccccc1
0.07 | 0.06 | 0.054 | CC[C@H](C)[C@H](NC(=O)[C@H](CC(C)C)NC(=O)[C@H](CCCN=C(N)N)NC(=O)[C@H](CCCN=C(N)N)NC(=O)[C@H](CCCCN)NC(=O)[C@H](C)NC(=O)[C@@H](N)Cc1c[nH]cn1)C(=O)N/C(=C\c1ccccc1)C(=O)O (H-HAKRRLI[X2]-OH)
 | 0.022 | 0.018 | CC[C@H](C)[C@H](NC(=O)[C@H](CC(C)C)NC(=O)[C@H](CCCN=C(N)N)NC(=O)[C@H](CCCN=C(N)N)NC(=O)[C@H](CCCCN)NC(=O)[C@H](C)NC(=O)[C@@H](N)Cc1c[nH]cn1)C(=O)N[C@H](CO)Cc1ccccc1 (H-HAKRRLI[Phe(ol)])

— ChEMBL document CHEMBL1135869, “Peptide inhibitors of CDK2-cyclin A that target the cyclin recruitment-site: structural variants of the C-terminal Phe” (Bioorg Med Chem Lett, 2002)
